From patent US7709466B2, “Pyridazinone derivatives, methods for their production and their use as pharmaceuticals” (Sanofi-Aventis Deutschland GmbH, priority 2004, dated 2010) come the findings set out here.

For this experiment, the target named is GSK-3β (Homo sapiens, UniProt P49841). Put plainly: GSK-3β activity, AlphaScreen technology, determination of IC50-values. The experiment is classed as biochemical. The conditions noted are these: human recombinant enzyme, primed glycogen synthase substrate peptide, 10 μM ATP, 60 min at room temperature, triplicate; read-out: GSK3β (μmol). The procedure:
Functional Measurements for Determination of IC50-Values
GSK-3βGSK-β activity is measured using human recombinant GSK-β and a primed (pre-phosphorylated) substrate peptide (derived from glycogen synthase and containing the phosphorylation sites 3a, b, and c) on basis of the AlphaScreen technology in 384-well plate format (small volume plate, white, GREINER). In a final volume of 11 μl, 2 μl of compound (1 nM-[…] in kinase buffer, DMSO (dimethylsulfoxide) kept constant at 0.9%), 2 μl of GSK-βsolution (0.18 nM) and 2 μl of biot. phospho-glycogen synthase peptide (34 nM) in kinase buffer (20 mM Hepes, pH 7.4, 10 mM MgCl2, […] (ethylenediaminotetraacetate), 1 mM DTT (dithiotriol), 0.1 mg/ml BSA (bovine serum albumin), 10 μM ATP (adenosinetriphosphate)) are incubated at room temperature for 60 min.

Each structure is given as a SMILES string.

Chain of GSK-3β (P49841 whole entry): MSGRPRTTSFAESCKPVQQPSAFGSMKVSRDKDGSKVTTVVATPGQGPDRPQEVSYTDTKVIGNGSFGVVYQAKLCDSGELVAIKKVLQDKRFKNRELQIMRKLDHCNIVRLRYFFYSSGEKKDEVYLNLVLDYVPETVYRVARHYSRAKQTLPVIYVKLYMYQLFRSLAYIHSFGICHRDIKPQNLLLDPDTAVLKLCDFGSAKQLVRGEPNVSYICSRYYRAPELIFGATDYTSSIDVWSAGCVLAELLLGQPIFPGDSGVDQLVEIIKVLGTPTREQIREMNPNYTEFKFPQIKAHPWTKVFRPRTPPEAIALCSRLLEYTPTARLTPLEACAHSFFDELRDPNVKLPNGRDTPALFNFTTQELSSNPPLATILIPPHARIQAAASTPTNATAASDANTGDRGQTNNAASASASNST

Turning to `O=c1[nH]nc(-c2ccn[nH]2)cc1-c1cc2ccccc2[nH]1` [Example 147, 4-(1H-Indol-2-yl)-6-(2H-pyrazol-3-yl)-2H-pyridazin-3-one], the IC50 is 2000 nM.
Then `O=c1[nH]nc(-c2ccncc2)cc1-c1cc2ccc(CN3CCN(C4CC4)CC3)cc2[nH]1` [Example 65, 4-[6-(4-Cyclopropyl-piperazin-1-ylmethyl)-1H-indol-2-yl]-6-pyridin-4-yl-2H-pyridazin-3-one], with 4 nM.
For the molecule `Cc1cc(-c2cc(-c3cc4ccccc4[nH]3)c(=O)[nH]n2)cc(C)c1O` [Example 6, 6-(4-Hydroxy-3,5-dimethyl-phenyl)-4-(1H-indol-2-yl)-2H-pyridazin-3-one], the IC50 is 590 nM.
Regarding `O=c1[nH]nc(-c2ccncc2)cc1-c1cc2ccc(CNC3CC3)cc2[nH]1` [Example 87, 4-(6-Cyclopropylaminometh-yl-1H-indol-2-yl)-6-pyridin-4-yl-2H-pyridazin-3-one], the IC50 is 14 nM.
For `Cn1cc(-c2cc(-c3cc4ccccc4[nH]3)c(=O)[nH]n2)cn1` [Example 126, 4-(1H-Indol-2-yl)-6-(1-methyl-1H-pyrazol-4-yl)-2H-pyridazin-3-one] the value was 1500 nM.
Then `CC(NC1CCN(C2CC2)CC1)c1ccc2cc(-c3cc(-c4ccncc4)n[nH]c3=O)[nH]c2c1` (stereo not shown) [Example 165, 4-{6-[1-(1-Cyclopropyl-piperidin-4-ylamino)-ethyl]-1H-indol-2-yl}-6-pyridin-4-yl-2H-pyridazin-3-one], with 18 nM; and `Cc1cc(-c2cc(-c3[nH]c4ccccc4c3-c3c[nH]c(=O)[nH]c3=O)c(=O)[nH]n2)cc(C)c1O` [Example 176, 5-{2-[6-(4-Hydroxy-3,5-dimethyl-phenyl)-3-oxo-2,3-dihydro-pyridazin-4-yl]-1H-indol-3-yl}-1H-pyrimidine-2,4-dione], with 78 nM.
Then `CN(Cc1ccc2cc(-c3cc(-c4ccncc4)n[nH]c3=O)[nH]c2c1)C1CCN(C2CC2)CC1` [Example 89, 4-(6-{[(1-Cyclopropyl-piperidin-4-yl)-methyl-amino]-methyl}-1H-indol-2-yl)-6-pyridin-4-yl-2H-pyridazin-3-one], with 12 nM.
For the molecule `O=c1[nH]nc(-c2ccncc2)cc1-c1[nH]c2ccccc2c1Cl` [Example 26, 4-(3-Chloro-1H-indol-2-yl)-6-pyridin-4-yl-2H-pyridazin-3-one], the IC50 was 25 nM.
For `O=C(O)[C@@H]1CCCN1Cc1ccc2cc(-c3cc(-c4ccncc4)n[nH]c3=O)[nH]c2c1` [Example 74, (S)-1-[2-(3-Oxo-6-pyridin-4-yl-2,3-dihydro-pyridazin-4-yl)-1H-indol-6-ylmethyl]-pyrrolidine-2-carboxylic acid] the value was 10 nM; for `Cn1cc(-c2c(-c3cc(-c4ccncc4)n[nH]c3=O)[nH]c3ccccc23)cn1` [Example 133, 4-[3-(1-Methyl-1H-pyrazol-4-yl)-1H-indol-2-yl]-6-pyridin-4-yl-2H-pyridazin-3-one], 7 nM; for `Cc1cc(-c2cc(-c3cc4ncccc4[nH]3)c(=O)[nH]n2)cc(C)c1O` [Example 180, 6-(4-Hydroxy-3,5-dimethyl-phenyl)-4-(1H-pyrrolo[3,2-b]pyridin-2-yl)-2H-pyridazin-3-one], 18 nM.
Then `O=c1[nH]nc(-c2ccncc2)cc1-c1[nH]c2ccccc2c1C1CC1` [Example 118, 4-(3-Cyclopropyl-1H-indol-2-yl)-6-pyridin-4-yl-2H-pyridazin-3-one], with 11 nM; and `COc1ccc2[nH]c(-c3cc(-c4ccncc4)n[nH]c3=O)cc2n1` [Example 116, 4-(5-Methoxy-1H-pyrrolo[3,2-b]pyridin-2-yl)-6-pyridin-4-yl-2H-pyridazin-3-one], with 7 nM; and `O=c1[nH]nc(-c2ccncc2)cc1-c1[nH]c2ccccc2c1CN1CCOCC1` [Example 11, 4-(3-Morpholin-4-ylmethyl-1H-indol-2-yl)-6-pyridin-4-yl-2H-pyridazin-3-one], with 102 nM.
Then `CN1CCN(Cc2ccc3cc(-c4cc(-c5cccc(O)c5)n[nH]c4=O)[nH]c3c2)CC1` [Example 156, 6-(3-Hydroxy-phenyl)-4-[6-(4-methyl-piperazin-1-ylmethyl)-1H-indol-2-yl]-2H-pyridazin-3-one], with 21 nM.
